Source: PubChem BioAssay (NCI)
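Grown in 96-well plates, cells were treated for 48 hours with each compound at five concentrations. Insufficient inhibition: endpoint recorded as highest concentration tested. TGI denotes the concentration required for complete inhibition of growth.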

Experiments:
Assay in all cases: NCI-60 cell line screen, 48 h
TK-10 renal = test system: TK-10 renal
COLO 205 colon = test system: COLO 205 colon
SF-539 CNS = test system: SF-539 CNS
NCI-H460 lung = test system: NCI-H460 lung
LOX IMVI melanoma = test system: LOX IMVI melanoma
SF-268 CNS = test system: SF-268 CNS
CAKI-1 renal = test system: CAKI-1 renal
NCI-H226 lung = test system: NCI-H226 lung
MDA-N = test system: MDA-N
A498 renal = test system: A498 renal
HCC-2998 colon = test system: HCC-2998 colon
KM12 colon = test system: KM12 colon
T-47D breast = test system: T-47D breast
NCI-H23 lung = test system: NCI-H23 lung
OVCAR-4 ovarian = test system: OVCAR-4 ovarian
SF-295 CNS = test system: SF-295 CNS
MCF7 breast = test system: MCF7 breast
ACHN renal = test system: ACHN renal
EKVX NSCLC = test system: EKVX NSCLC
M14 melanoma = test system: M14 melanoma
U251 CNS = test system: U251 CNS
MDA-MB-231 breast = test system: MDA-MB-231 breast
NCI-H522 lung = test system: NCI-H522 lung
RPMI-8226 leukemia = test system: RPMI-8226 leukemia
A549 NSCLC = test system: A549 NSCLC
SK-MEL-5 melanoma = test system: SK-MEL-5 melanoma
SN12C renal = test system: SN12C renal
NCI/ADR-RES ovarian = test system: NCI/ADR-RES ovarian
MALME-3M melanoma = test system: MALME-3M melanoma
IGROV1 ovarian = test system: IGROV1 ovarian
OVCAR-3 ovarian = test system: OVCAR-3 ovarian
DU-145 prostate = test system: DU-145 prostate
MDA-MB-435 = test system: MDA-MB-435
SW-620 colon = test system: SW-620 colon
HT29 colon = test system: HT29 colon
786-0 renal = test system: 786-0 renal
K-562 leukemia = test system: K-562 leukemia
CCRF-CEM leukemia = test system: CCRF-CEM leukemia
SK-OV-3 ovarian = test system: SK-OV-3 ovarian
UACC-62 melanoma = test system: UACC-62 melanoma
UACC-257 melanoma = test system: UACC-257 melanoma
HS 578T breast = test system: HS 578T breast
HCT-15 colon = test system: HCT-15 colon
OVCAR-8 ovarian = test system: OVCAR-8 ovarian
OVCAR-5 ovarian = test system: OVCAR-5 ovarian
PC-3 prostate = test system: PC-3 prostate
HOP-62 NSCLC = test system: HOP-62 NSCLC
RXF 393 renal = test system: RXF 393 renal
SNB-19 CNS = test system: SNB-19 CNS
HL-60(TB) leukemia = test system: HL-60(TB) leukemia
HOP-92 NSCLC = test system: HOP-92 NSCLC
SK-MEL-28 melanoma = test system: SK-MEL-28 melanoma
SR leukemia = test system: SR leukemia
HCT-116 colon = test system: HCT-116 colon
SK-MEL-2 melanoma = test system: SK-MEL-2 melanoma
MOLT-4 leukemia = test system: MOLT-4 leukemia
UO-31 renal = test system: UO-31 renal

Measured: TGI

CC1(C)N=C(C(N)=O)c2ncn(CCO)c2N1
not listed: SK-MEL-2 melanoma | MOLT-4 leukemia | UO-31 renal
> 100 µM: all other assays above

O=C1CSc2nc3ccccc3n2/C=N\N1
not listed: SF-539 CNS | T-47D breast | EKVX NSCLC | MALME-3M melanoma | IGROV1 ovarian | OVCAR-3 ovarian | HS 578T breast | HOP-62 NSCLC | HL-60(TB) leukemia
> 100 µM: all other assays above
